Results on nine compounds are retold here after publication PMC12339163, “Combining Plant Bioactives With Antibiotics for Enhanced Antibiofilm Activity Against Uropathogenic Staphylococcus spp. and Cytotoxicity Evaluation” (Advances in Pharmacological and Pharmaceutical Sciences, 2025).

Where two headings read alike, the source gives them in different places.

Assay [1] relates to planktonic cells of Staphylococcus spp. Nature of the assay: Checkerboard combination assay, planktonic cells, synergistic combinations (Table 3). The note with it: mean. The format is cell-based. As to the method: The checkerboard assay, as previously described, was used for the determination of the fractional inhibitory concentration index (FICI). Briefly, 50 µL of MHB was distributed into each well of a 96-well microplate. ATBs were serially diluted along the abscissa, and NPs were serially diluted along the ordinate. Then, 100 µL of bacterial inoculum (1.5 × 10^6 CFU/mL) was added to each well and incubated at 37°C for 24 h. The final concentration ranged from 0.125 to 128 µg/mL for ATBs and 4–512 µg/mL for NPs. After incubation, a volume of 40 µL of INT solution (0.2 mg/mL) was added to each well, and the microplate was incubated at 37°C for 30 min. The wells containing bacterial inoculum and MHB were used as a positive control, while wells containing only MHB + 1% glucose were used as a negative control and used as a blank. Viable bacteria cells change the yellow dye of INT to a pink color. The MICs were considered to be the lowest NP concentrations that prevented the color change medium. Subsequently, the FICI was calculated according to the formula FICI = (MIC of the ATBs in combination/MIC of the ATBs alone) + (MIC of a natural substance in combination/MIC of the natural substance alone). FICI values were interpreted as follows: synergy when FICI ≤ 0.5; additive when 0.5 < FICI ≤ 1; indifference when 1 < FICI ≤ 4; and antagonism when FICI > 4.

The subject of a further assay is Raw 264.7 macrophages. Nature of the assay: Cytotoxicity, MTT assay. The note with it: Raw 264.7, MTT. The format is cell-based. As for the experimental part:
(§1) Two cell lines, including Raw 264.7 macrophages and the urinary epithelial cell line UROtsa obtained from the American Type Culture Collection (Rockville, MD, USA), were used. They were cultured in Dulbecco's modified Eagle's medium (DMEM), which was supplemented with 10% fetal bovine serum (FBS) and 1% penicillin, streptomycin, and fungizone (PSF). They were then grown at 37°C in a humidified environment containing 5% CO2.
(§2) The cytotoxicity of the selected synergistic combinations, as well as the individual constituents of combinations, against the abovementioned cell lines was performed by the MTT assay as previously described. Briefly, cells from each line were harvested in the logarithmic phase using trypsin (0.05% trypsin, 0.02% EDTA in PBS). Cell suspension was diluted with an appropriate growth medium to obtain a cell density of 10^4 cells/well. A 100 µL aliquot of each suspension was seeded into 96-well cell culture plates and incubated at 37°C in an atmosphere of 5% CO2 and 95% relative humidity. After 24 h of incubation, 100 µL of samples (ATBs and NPs) at concentrations varying from 0.01, 0.1, 1, 10, 100, and 1000, as well as the synergistic combinations (C1 to C5), was added to the wells containing the cells. Doxorubicin was used as a positive control. Appropriate controls with an equivalent concentration of DMSO were also included. Plates were incubated for 48 h, then the medium in each well was aspirated, and MTT solution (2 mg/mL in PBS) was diluted 1:10 with fresh medium and added to each well, and the plates were further incubated at 37°C for 4 h. Absorbance was measured on a BioTek microplate reader at 570 nm. The percentage of cell viability was calculated by comparing treated and untreated cells using the equation [39]:(3) cell viability %=ODtest/ODcontrol×100.
(§3) Then, the IC50 values of the samples having shown at least 50% inhibition were calculated by plotting the percentage of inhibition against the concentrations.
(Tetrazolium assays rely on reduction of a dye to a coloured formazan, in cell work by metabolically active cells.)

Assay [2] concerns UROtsa urinary epithelial cells. Description: Cytotoxicity, MTT assay. It is filed as cell-based. The note with it: 48 h. As for the experimental part: as §1, §2, §3
A further assay deals with S. epidermidis biofilm. Description: Time-kill kinetic assay on biofilm inhibition. It is filed as cell-based, Staphylococcus epidermidis. The note with it: at 24 h. As for the experimental part:
The biofilm formation inhibitory activity of NPs and ATBs was carried out according to the method previously described. A total of 100 µL of bacterial inoculum (1.5 × 10^6 CFU/mL) was used, and 100 µL of each sample was added to the microplate to achieve final concentrations ranging from 0.25 µg/mL to 128 µg/mL for ATBs and from 8 µg/mL to 1024 µg/mL for NPs. Then, the microplate was incubated at 37°C for 24 h. After incubation, the plates were gently emptied and washed three times with a phosphate buffer solution at pH 7.2. Then, the MTT solution (0.5 mg/mL) prepared in PBS was introduced into each well, and the microplate was further incubated at 37°C for 24 h. Untreated wells containing bacterial suspension and MHB supplemented with 1% glucose were considered positive controls, and wells containing only MHB+1% glucose without bacteria were used as blanks. After incubation, the MTT solution was aspirated, then 150 µL of DMSO was introduced to dissolve the formazan crystal formed by viable bacteria, and the optical density (OD) was measured at 570 nm using a microplate reader (VERSA-max). The percentage of biofilm inhibition was calculated using the formula below, and the minimal biofilm inhibitory concentration (MBIC) was recorded as the lowest concentration of NPs or ATBs that inhibited 100% of biofilm:(1) % biofilm inhibition=ODcontrol−ODblank−ODtest−ODblank/ODcontrol−ODblank×100.
The five best synergistic antibiofilm combinations were selected, and their ability to inhibit biofilm formation and eradication as a function of time was evaluated at 4-h intervals for 24 h by the microtiter plate method, as previously described. The synergistic antibiofilm combinations selected were with FICI < 0.4, named C1 to C5. C1: cefixime (5.33 µg/mL) + thymol (32 µg/mL); C2: cefazolin (1.16 µg/mL) + thymol (21.33 µg/mL); C3: amikacin (0.18 µg/mL) + curcumin (37.33 µg/mL); C4: kanamycin (0.25 µg/mL) + curcumin (14 µg/mL); and C5: amoxicillin (1.16 µg/mL) + curcumin (21.33 µg/mL). The kinetics of biofilm inhibition and eradication were performed as described above for the biofilm inhibition and eradication assay using the indicated combinations, followed by the reading of the optical densities (570 nm) at 4-h intervals over 24 h (0, 4, 8, 12, 16, and 24 h). In both cases, experiments were carried out three times in triplicate.

Where [3] appears, read: Mus musculus, RAW264.7, 48 h, read-out: IC50.
Setting [4] is: Epithelial cell, read-out: IC50.
Setting [5] is: C1 and its components (cefixime 5.33 µg/mL, thymol 32 µg/mL).
Setting [6] is: C2 and its components (cefazolin 1.16 µg/mL, thymol 21.33 µg/mL).

Turning to `O=C(O)c1cc(O)c(O)c(O)c1` [Gallic acid, 3,4,5-trihydroxybenzoic acid], the MIC (usually the lowest concentration that inhibits growth of the organism) in assay [1] (24 h, read-out: MIC alone, NPs) came out at 512 µg/mL.
Consider `CC1(C)S[C@@H]2[C@H](NC(=O)[C@H](N)c3ccc(O)cc3)C(=O)N2[C@H]1C(=O)O` [Amoxicillin, amoxicillin], for which the IC50 (as a rule, the concentration that inhibits the measured activity by half) in the assay on Raw 264.7 macrophages (setting [3]) was greater than 1000 µg/mL; with Raw 264.7 macrophages (48 h) it was “— (IC50 > 1000 µg/mL)”; in assay [2], “— (IC50 > 1000 µg/mL)”; in assay [2] (setting [4]), greater than 1000 µg/mL.
Turning to `NC[C@H]1O[C@H](O[C@H]2[C@H](O)[C@@H](O[C@H]3O[C@H](CO)[C@@H](O)[C@H](N)[C@H]3O)[C@H](N)C[C@@H]2N)[C@H](O)[C@@H](O)[C@@H]1O` [Kanamycin, kanamycin], the IC50 result (in the assay with Raw 264.7 macrophages (48 h); in assay [2]) was “— (IC50 > 1000 µg/mL)” each time.
Take `C=CC1=C(C(=O)O)N2C(=O)[C@@H](NC(=O)/C(=N\OCC(=O)O)c3csc(N)n3)[C@H]2SC1` [Cefixime, cefixime]: the IC50 was 473.83 µg/mL with Raw 264.7 macrophages (48 h), “— (IC50 > 1000 µg/mL)” in assay [2] and greater than 1000 µg/mL in assay [2] (setting [4]). In addition, the “OD (570 nm), biofilm inhibition” value in the assay on S. epidermidis biofilm (setting [5]) came out at 0.84.
In the case of `C[C@H]1c2cccc(O)c2C(=O)C2=C(O)[C@]3(O)C(=O)C(C(N)=O)=C(O)[C@@H](N(C)C)[C@@H]3[C@@H](O)[C@@H]21` [Doxycycline, doxycycline], in assay [1] (read-out: MIC alone, ATB), the MIC was 7 µg/mL.
On to `Cc1nnc(SCC2=C(C(=O)O)N3C(=O)[C@@H](NC(=O)Cn4cnnn4)[C@H]3SC2)s1` [Cefazolin, cefazolin], for which the IC50 in the assay on Raw 264.7 macrophages (setting [3]) is greater than 1000 µg/mL; in the assay with Raw 264.7 macrophages (48 h), 504.26 µg/mL; in assay [2] it was “— (IC50 > 1000 µg/mL)”; in assay [2] (setting [4]), greater than 1000 µg/mL. Moreover, the “OD (570 nm), biofilm inhibition” value with S. epidermidis biofilm (setting [6]) was 1.27.
For the compound `Cc1ccc(C(C)C)c(O)c1` [Thymol, thymol], the MIC in assay [1] (24 h, read-out: MIC alone, NPs) was 427 µg/mL. Besides, the IC50 was 442 µg/mL in the assay with Raw 264.7 macrophages (setting [3]) and greater than 1000 µg/mL in assay [2] (setting [4]). Further, the “OD (570 nm), biofilm inhibition” value with S. epidermidis biofilm (setting [5]) turned out to be 0.67; with S. epidermidis biofilm (setting [6]), 0.96.
Consider `COc1cc(/C=C/C(=O)CC(=O)/C=C/c2ccc(O)c(OC)c2)ccc1O` [Curcumin, curcumin], for which the MIC in assay [1] (24 h, read-out: MIC alone, NPs) is 384 µg/mL. For the same compound, the IC50 with Raw 264.7 macrophages (setting [3]) turned out to be 94.4 µg/mL; in assay [2] (setting [4]), 51.9 µg/mL.
For `NCC[C@H](O)C(=O)N[C@@H]1C[C@H](N)[C@@H](O[C@H]2O[C@H](CN)[C@@H](O)[C@H](O)[C@H]2O)[C@H](O)[C@H]1O[C@H]1O[C@H](CO)[C@@H](O)[C@H](N)[C@H]1O` [Amikacin, amikacin], the MIC in assay [1] (read-out: MIC alone, ATB) was found to be 1.16 µg/mL. Also, the IC50 in the assay on Raw 264.7 macrophages (setting [3]) is greater than 1000 µg/mL; in the assay with Raw 264.7 macrophages (48 h), “— (IC50 > 1000 µg/mL)”; in assay [2] it was “— (IC50 > 1000 µg/mL)”; in assay [2] (setting [4]), greater than 1000 µg/mL.
